Results as given in patent publication US20050065140A1, “Serotonine reuptake inhibitor” (priority 2001, published 2005).

Key:
[1] = target: T1, serotonin 1A receptors ([^3H]8-OH-DPAT binding, hippocampus membrane preparation) (Rattus norvegicus, UniProt P19327); test: [^3H]8-OH-DPAT binding test (Test Example 2); conditions: [^3H]8-OH-DPAT 2 nM, test concentration not given
T1 construct: 146 μl of the hippocampus membrane preparation (80 μg/tube in terms of protein); from tissue; host or cells: rat hippocampus membrane preparation
T1 sequence (P19327 1-422): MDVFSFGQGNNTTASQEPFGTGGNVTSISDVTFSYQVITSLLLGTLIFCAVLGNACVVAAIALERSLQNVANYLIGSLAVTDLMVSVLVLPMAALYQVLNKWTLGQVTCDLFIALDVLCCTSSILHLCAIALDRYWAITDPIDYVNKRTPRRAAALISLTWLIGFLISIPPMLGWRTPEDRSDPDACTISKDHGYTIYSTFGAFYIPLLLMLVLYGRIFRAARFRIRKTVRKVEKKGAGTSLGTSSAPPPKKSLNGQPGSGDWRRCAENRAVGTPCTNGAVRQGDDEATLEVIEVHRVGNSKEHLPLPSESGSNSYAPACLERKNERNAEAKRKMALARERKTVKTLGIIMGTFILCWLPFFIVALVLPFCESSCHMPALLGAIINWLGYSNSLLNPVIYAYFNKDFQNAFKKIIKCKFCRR
Experimental: [^3H]8-OH-DPAT Binding Test
The test was carried out according to the method^2 of Hall M. D. et al. After about one week of pre-breeding, a male rat was decapitated and the brain was immediately removed. The hippocampus was dissected from the brain on ice, and 50 mM Tris-HCl (pH=7.4) was added to the hippocampus in an amount of 40 times the wet weight of the hippocampus, followed by homogenization (3 min, 1 stroke/min) in an ice bath by the use of a Teflon-glass homogenizer. Then, the homogenate was centrifuged (4° C.) at 40,000×g for 10 minutes. The resulting precipitate was dispersed in an ice-cooled buffer solution (50 mM Tris-HCl (pH=7.4)) by the use of Hiscotron™, followed by centrifugation (4° C.) at 40,000×g for 10 minutes. Moreover, the resulting precipitate was re-suspended and the washing procedure was repeated once. The precipitate thus obtained was dispersed in an ice-cooled buffer solution (50 mM Tris-HCl (pH=7.4)) by the use of Hiscotron™, and the resulting dispersion was incubated at 37° C. for 1 hour and then centrifuged (4° C.) at 40,000×g for 10 minutes. Furthermore, the resulting precipitate was re-suspended and the washing procedure was repeated once. The membrane preparation thus obtained was suspended in the same buffer solution as described above, and then subjected to cryopreservation at −80° C.
Measurement was carried out by using a liquid for reaction (total volume: 200 μl) obtained by adding 50 μl of [^3H]8-OH-DPAT (final concentration: 2 nM), 4 μl of a solution of a test drug and 146 μl of the hippocampus membrane preparation (80 μg/tube in terms of protein) to a buffer solution containing 50 mM Tris-HCl (pH=7.4) and 4 mM CaCl2. After the liquid for reaction was allowed to react at room temperature for 30 minutes, it was immediately filtered by suction at a low pressure through glass fiber filter. The glass fiber filter was washed twice with 250 μl of a buffer solution and then added to a glass vial containing 4 ml of ACS-II (Amersham), and the radioactivity bound to receptors and remaining on the filter was measured with a liquid scintillation counter. Non-specific binding of [^3H]8-OH-DPAT was defined as the amount of [^3H]8-OH-DPAT bound in the presence of 1 μM 8-OH-DPAT.
(§1) Rate of binding inhibition was calculated by the following equation:
(§2) Rate of binding inhibition (%)=100−100×{[amount of [^3H]8-OH-DPAT bound in the presence of test substance]−[amount of [^3H]8-OH-DPAT bound in the presence of 1 μM 8-OH-DPAT]/[amount of [^3H]8-OH-DPAT bound in the absence of test substance]−[amount of [^3H]8-OH-DPAT bound in the presence of 1 μM 8-OH-DPAT]}

[2] = target: T2, [^3H]paroxetine binding (serotonin reuptake), cerebral cortex membrane preparation (Rattus norvegicus, UniProt P31652); test: Screening test using [^3H]paroxetine binding (Test Example 1); conditions: [^3H]paroxetine 0.15 nM, test concentration not given
T2 construct: 790 μl of the cerebral cortex membrane preparation (150 μg/tube in terms of protein); from tissue; host or cells: rat cerebral cortex membrane preparation
T2 sequence (P31652 whole entry): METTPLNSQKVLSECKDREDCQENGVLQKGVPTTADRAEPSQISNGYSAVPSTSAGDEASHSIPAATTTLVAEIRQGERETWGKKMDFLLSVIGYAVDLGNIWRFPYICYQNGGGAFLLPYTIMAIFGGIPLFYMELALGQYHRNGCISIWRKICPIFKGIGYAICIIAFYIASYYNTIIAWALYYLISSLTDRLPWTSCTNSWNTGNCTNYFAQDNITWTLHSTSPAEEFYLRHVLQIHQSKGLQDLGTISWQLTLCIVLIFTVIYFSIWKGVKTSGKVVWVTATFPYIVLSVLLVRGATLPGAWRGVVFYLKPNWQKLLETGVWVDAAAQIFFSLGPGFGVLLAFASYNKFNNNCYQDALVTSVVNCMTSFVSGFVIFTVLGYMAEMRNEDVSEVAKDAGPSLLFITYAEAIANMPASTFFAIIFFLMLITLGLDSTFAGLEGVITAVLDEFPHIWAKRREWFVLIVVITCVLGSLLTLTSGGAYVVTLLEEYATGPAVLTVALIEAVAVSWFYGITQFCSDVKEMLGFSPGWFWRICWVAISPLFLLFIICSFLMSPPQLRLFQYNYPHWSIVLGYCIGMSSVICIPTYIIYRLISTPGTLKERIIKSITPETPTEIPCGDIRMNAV
Experimental: Screening Test Using [^3H]Paroxetine Binding
The membrane preparation was prepared according to the method^1a) of D'amato et al. In detail, after a male rat was decapitated, the whole brain was immediately removed and the cerebral cortex was dissected therefrom under ice-cooling. A buffer solution (50 mM Tris-HCl (pH=7.4), 120 mM NaCl, 5 mM KCl) was added to the cerebral cortex in an amount of 25 times the wet weight of the cerebral cortex, followed by homogenization in an ice bath by the use of a Teflon-glass homogenizer. The homogenate was centrifuged at 4° C. and 45,000×g for 10 minutes, and the resulting precipitate was dispersed in an ice-cooled buffer solution (50 mM Tris-HCl (pH=7.4), 120 mM NaCl, 5 mM KCl) by the use of Hiscotron™, followed by centrifugation at 4° C. and 45,000×g for 10 minutes. The resulting precipitate was re-suspended and the washing procedure was repeated. The membrane preparation thus obtained was suspended in the same buffer solution as described above, and then subjected to cryopreservation at −80° C.
[^3H]paroxetine binding was measured according to the method^1b) of Habert E et al. In detail, 200 μl of a dilution (final concentration: 0.15 nM) of [^3H]paroxetine with 50 mM Tris-HCl (pH=7.4) buffer containing 120 mM NaCl and 5 mM KCl, 790 μl of the cerebral cortex membrane preparation (150 μg/tube in terms of protein), 10 μl of a solution of a test drug in dimethyl sulfoxide and 1 ml of the above-mentioned buffer solution were mixed to prepare a liquid having a total volume of 2 ml. After this liquid was allowed to react at room temperature for 60 minutes, it was immediately filtered by suction at a low pressure through glass fiber filter. The glass fiber filter was washed 4 times with 4 ml of the same buffer solution as above and then transferred to a glass vial containing 4 ml of ACS-II (Amersham), and the radioactivity remaining on the filter was measured with a liquid scintillation counter.
Non-specific binding of [^3H]paroxetine was defined as the amount of [^3H]paroxetine bound in the presence of 100 μM 5-HT.
as §1
as §2, with “of [^3H]paroxetine” for “of [^3H]8-OH-DPAT”, “of 100” for “of 1”, “μM 5-HT]/[amount” for “μM 8-OH-DPAT]/[amount”, “μM 5-HT]}” for “μM 8-OH-DPAT]}”

| SMILES | melting point | Rate of inhibition of [^3H]8-OH-DPAT binding (%) [1] | Rate of inhibition of [^3H]paroxetine binding (%) [2] |
| --- | --- | --- | --- |
| COc1ccc(Br)c(CC2CCN(CCC3CCNCC3)CC2)c1.Cl.Cl [Example 1, 4-(2-Bromo-5-methoxybenzyl)-1-(2-(4-piperidinyl)ethyl)piperidine Dihydrochloride] | – | 47% | 81% |
| COc1ccc(N2CC(CN3CCC(Cc4cc(OC)ccc4Br)CC3)OC2=O)cc1.Cl (stereo not drawn) [Example 72, 5-(4-(2-Bromo-5-methoxybenzyl)piperidin-1-yl)methyl-3-(4-methoxyphenyl)oxazolidin-2-one hydrochloride] | – | 97% | 99% |
| COc1ccc(Br)c(CC2CCN(CC[C@H]3CC[C@@H](CCO)CC3)CC2)c1.Cl [Example 63] | 172 °C | – | – |
| CCN[C@H]1CC[C@@H](CCN2CCC(Cc3cc(OC(C)C)ccc3Br)CC2)CC1.Cl.Cl [Example 41, cis-N-(4-(2-(4-(2-bromo-5-isopropoxybenzyl)-piperidin-1-yl)ethyl)cyclohexyl)-N-ethylamine Dihydrochloride] | 247 °C | 86% | 78% |
| Cl.Cl.Fc1ccc(Br)c(CC2CCN(CC3CCc4ccccc4N3)CC2)c1 (stereo not drawn) | 245 °C | – | – |
| COc1ccc(Br)c(CC2CCN(CCC3(CCO)CCCCC3)CC2)c1.Cl [Example 60, 2-(1-(2-(4-(2-Bromo-5-methoxybenzyl)-piperidin-1-yl)ethyl)cyclohexyl)ethanol Hydrochloride] | – | 98% | 91% |
| CCN(C(C)=O)[C@H]1CC[C@H](CCN2CCC(Cc3cc(OC(C)C)ccc3Br)CC2)CC1.Cl [Example 52, trans-N-(4-(2-(4-(2-bromo-5-isopropoxy-benzyl)piperidin-1-yl)ethyl)cyclohexyl)-N-ethylacetamide Hydrochloride] | – | 60% | 90% |
| CCOc1ccc(Br)c(CC2CCN(CC3CCc4ccccc4N3)CC2)c1.Cl.Cl (stereo not drawn) | 228 °C | – | – |
| CCNC(=O)N1CCC(CCN2CCC(Cc3cc(OC)ccc3Br)CC2)CC1.Cl [Example 32] | – | 73% | 97% |

Continued, in another order:

| melting point | SMILES | Rate of inhibition of [^3H]8-OH-DPAT binding (%) [1] | Rate of inhibition of [^3H]paroxetine binding (%) [2] |
| --- | --- | --- | --- |
| 134 °C | CO[C@H]1CC[C@@H](CCCN2CCC(Cc3cc(OC(C)C)ccc3Br)CC2)CC1.Cl | – | – |
| 234 °C | CCN[C@H]1CC[C@@H](CCCN2CCC(Cc3cc(OC)ccc3Br)CC2)CC1.Cl.Cl | – | – |
| 290 °C | CCN[C@H]1CC[C@H](CCN2CCC(Cc3cc(OC(C)C)ccc3Br)CC2)CC1.Cl.Cl | – | – |
| 253 °C | CCN(CC)[C@H]1CC[C@H](CCN2CCC(Cc3cc(OC(C)C)ccc3Br)CC2)CC1.Cl.Cl | – | – |
| 132 °C | COCC(=O)N[C@H]1CC[C@H](CCN2CCC(Cc3cc(OC)ccc3Br)CC2)CC1.Cl | – | – |
| 184 °C | COc1ccc(Br)c(CC2CCN(CCC3(CCO)CCCC3)CC2)c1.Cl | – | – |
| 209 °C | COc1ccc(Br)c(CC2CCN(CC[C@H]3CC[C@@H](CO)CC3)CC2)c1.Cl | – | – |
| 209 °C | CCN(CC(F)(F)F)[C@H]1CC[C@H](CCN2CCC(Cc3cc(OC)ccc3Br)CC2)CC1.Cl.Cl | – | – |
| 259 °C | CCN(CCO)[C@H]1CC[C@H](CCN2CCC(Cc3cc(OC)ccc3Br)CC2)CC1.Cl.Cl | – | – |
| 242 °C | CCN(CC)[C@H]1CC[C@H](CCN2CCC(Cc3cc(OC)ccc3Br)CC2)CC1.Cl.Cl | – | – |
| 238 °C | COc1ccc(Br)c(CC2CCN(CCC[C@H]3CC[C@@H](N)CC3)CC2)c1.Cl.Cl | – | – |
